In PubChem BioAssay (NCI):
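A five-concentration, 48-hour dose response in 96-well plates underlies each endpoint, interpolated linearly between surrounding concentrations. At the GI50, growth is halved. The concentration for full growth arrest is given as TGI.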

What was measured:
Experiment in all cases: NCI anticancer screen, dose series, 48 h
[1] = system: A498 renal
[2] = system: MCF7 breast
[3] = system: SK-OV-3 ovarian
[4] = system: A549 NSCLC
[5] = system: IGROV1 ovarian
[6] = system: UACC-257 melanoma
[7] = system: MDA-MB-435
[8] = system: PC-3 prostate

Row | Compound | GI50 [1] | TGI [1] | GI50 [2] | TGI [2] | GI50 [3] | TGI [3] | GI50 [4] | TGI [4] | GI50 [5] | TGI [5] | GI50 [6] | TGI [6] | GI50 [7] | TGI [7] | GI50 [8] | TGI [8]
1 | COc1cnc2c(c1)C(=O)c1c-2n(CCCN2CCC(O)CC2)c(=O)c2cc(F)ccc12 | 0.198 µM | 1.23 µM | 0.0312 µM | 1.17 µM | 0.22 µM | 0.783 µM | 0.0899 µM | 0.32 µM | 0.301 µM | 2.24 µM | 0.296 µM | 1.81 µM | 0.382 µM | 5.72 µM |  | 
2 | CN1CCN(Cc2ccc(NC(=O)c3cncc(C#Cc4cncc5ncccc45)c3)cc2C(F)(F)F)CC1 | 0.323 µM | 3.43 µM | 3.28 µM | 15.7 µM | 2.89 µM | 11.3 µM | 3.86 µM | 15.5 µM | 1.16 µM | 7.45 µM | 2.47 µM | 12.4 µM | 2.03 µM | 12.9 µM | 5.5 µM | 24 µM
3 | O=C1c2ccccc2C(=Cc2ccccc2)c2ccccc21 | 2.3 µM | 9.52 µM | 1.44 µM | 12 µM | 2.54 µM | 9.05 µM | 3.22 µM | 9.97 µM | 2.35 µM | 11.4 µM | 5.22 µM | 23.9 µM | 0.31 µM | 11.9 µM | 2.26 µM | 15.8 µM
4 | Cc1cccc(C(=O)/C=C/SC(=NC#N)SCc2ccccc2)c1 |  |  | 34.3 µM | > 100 µM | > 100 µM | > 100 µM | 23.7 µM | 67.7 µM | 21.4 µM | 61.5 µM | 18.1 µM | 35.9 µM | 23.1 µM | 72.1 µM | 16.4 µM | 50.8 µM
5 | CCN1C(NN)=NS(=O)(=O)c2ccccc21 |  | > 100 µM |  | > 100 µM |  | > 100 µM |  | > 100 µM |  | > 100 µM |  | > 100 µM |  | > 100 µM |  | > 100 µM
6 | O=C(O)CCC(=O)c1ccc2ccc3cccc4ccc1c2c34 |  | > 100 µM |  | > 100 µM |  | > 100 µM |  | > 100 µM |  | > 100 µM |  | > 100 µM |  | > 100 µM |  | > 100 µM
7 | Cc1cc(C2=NNC(=O)Cc3cc4c(cc32)OCCO4)cc(C)c1N | 3.31 µM | 99.4 µM | 1.13 µM | > 100 µM | 2.44 µM | 23.6 µM | 3.2 µM | > 100 µM | 3 µM | > 100 µM |  |  | 0.261 µM | 0.978 µM | 2.73 µM | > 100 µM
8 | C=C(C)C1CC2(C)C(C)CC(OC(=O)/C(C)=C\C)CC2C(OC(=O)/C(C)=C\C)C1O (stereo not drawn) |  | > 100 µM |  | > 100 µM |  | > 100 µM |  | > 100 µM |  | > 100 µM |  | > 100 µM |  | > 100 µM |  | > 100 µM
9 | CC(=O)c1c(C)n(C)c2c1nnc1ccccc12 |  | > 100 µM |  | 86.3 µM |  | > 100 µM |  | > 100 µM |  |  |  | > 100 µM |  | > 100 µM |  | > 100 µM
10 | COc1ccc2c(c1)C(=O)c1c-2c(Nc2ccc(C(C)=O)cc2)nc2ccccc12 | 35.2 µM | > 100 µM | 64.7 µM | > 100 µM |  |  | 37.2 µM | > 100 µM | 22.9 µM | 92.8 µM | 91.1 µM | > 100 µM | > 100 µM | > 100 µM | 34.3 µM | > 100 µM
11 | OCC1OC(OCC(O)C(O)C(O)C(/C=N/Nc2ccccc2)=N/Nc2ccccc2)C(O)C(O)C1O (stereo not drawn) |  |  |  | > 100 µM |  | > 100 µM |  | > 100 µM |  | > 100 µM |  | > 100 µM |  | > 100 µM |  | > 100 µM
12 | COC(=O)c1ccc(NC(=O)Nc2ccc3oc(=O)c4ccccc4c3c2)cc1 |  |  | 35.2 µM | > 100 µM | 40.3 µM | > 100 µM | > 100 µM | > 100 µM | 37.8 µM | > 100 µM | 60.7 µM | > 100 µM | 27.9 µM | 89.3 µM | 36.2 µM | > 100 µM
13 | Oc1ccc(O)c(-c2cc(-c3ccccc3)nn2-c2ccccc2)c1 |  |  | 6.55 µM | > 100 µM |  |  | 17.3 µM | 80.9 µM | > 100 µM | > 100 µM | 18 µM | 52.1 µM | 18.4 µM | > 100 µM | 16.7 µM | > 100 µM
14 | Cn1nnnc1N/N=C/c1ccccc1 |  |  |  | > 10 µM |  | > 10 µM |  | > 10 µM |  | > 10 µM |  | > 10 µM |  | > 10 µM |  | > 10 µM
15 | COc1ccc(-c2nn(-c3cccc(NC(=O)c4ccc5c(c4)OCCO5)c3)cc2-c2ccncc2)cc1Cl | 0.422 µM | 3.45 µM | 1.99 µM | 10.9 µM | 3.82 µM | > 100 µM | 2.98 µM | 77.5 µM | 5.86 µM | 57.2 µM | 3.17 µM | 20.5 µM |  |  | 2.12 µM | 18.1 µM
16 | C[C@]12CCc3nonc3C1CC[C@@H]1C2CC[C@]2(C)NC(=O)CCC12 (stereo partly drawn) |  | > 100 µM |  |  |  | > 100 µM |  | > 100 µM |  | > 100 µM |  | > 100 µM |  |  |  | 
17 | CO/N=C(\C)c1cccc(Nc2cc(-c3ccccc3)nc3c(O)cccc23)c1 |  |  |  |  | 8.62 µM | 34.5 µM | 5.99 µM | 21.8 µM | 2.46 µM | 8.29 µM | 4.07 µM | 22.6 µM | 1.97 µM | 5.56 µM | 4.13 µM | 24.3 µM
18 | CC(C)(C)c1[nH]cnc1/C=c1\[nH]c(=O)/c(=C/c2ccccc2)[nH]c1=O | < 0.01 µM | 0.51 µM | 0.0203 µM | 17 µM | < 0.01 µM | 60.9 µM | 0.0181 µM | 41.5 µM | 0.0134 µM | 24.2 µM | 6.32 µM | 22.6 µM |  |  | < 0.01 µM | 36.1 µM
19 | Cc1noc(C)c1-c1cc(O)cc(C(O)c2ccccc2)c1 (stereo not drawn) | 2.6 µM | 20.3 µM | 1.7 µM | > 100 µM | 7.01 µM | > 100 µM | 22.4 µM | > 100 µM | 23.2 µM | > 100 µM | 4.66 µM | > 100 µM | 3.48 µM | > 100 µM |  | 
